{"source": "patent US20150104507A1", "about": "(UCB PHARMA GMBH, priority 2010, published 2015)", "key": {"[1]": {"assay": "Thorough QT trial: dizziness as adverse event vs tmax", "assay_type": "in vivo", "settings": "human, plasma, oral; day 6 of SP640; range 1-4 h; read-out: tmax, time for maximum LCM plasma concentration (median)", "description": "In a thorough QT trial safety profile of lacosamide (LCM) was characterized. During day 2-6 of multiple dose administration of an IR formulation (Vimpat®) of 200 or 400 mg LCM bid 45 times ‘DIZZINESS’ was detected as adverse event (AE). Time of onset was 1.4+/−0.8 h after actual administration of LCM. This corresponds exactly to the typical time for maximum LCM plasma concentration tmax (e.g., 1 h (median, range 1-4 h) at day 6 of SP640)."}, "[2]": {"assay": "PK-PD modeling of seizure frequency (Emax model, Example 54)", "assay_type": "in vivo, human", "settings": "human, plasma, read-out: Corresponding AUCτ,ss", "from_the_text": "(§1) Objectives of the PK-PD analysis were to evaluate and describe the correlation between the LCM plasma concentration over time (PK parameter) and the reduction of daily seizures over time (PD parameter) based on the pooled data from the previous clinical human trials.\n(§2) The evaluation of PK-PD modeling was done based on the Emax model.\n(§3) The slope of the linear regression is equal to the mean daily number of seizures.\n(§4) In a first step, the validity of the developed equations for approximation of AUCτ,ss, the PK parameter of interest in the current PK-PD evaluation, was shown.\n(§5) Based on the relative difference of the individual slopes during Titration and Maintenance Phase vs Baseline slope and the approximated AUCτ,ss,m, the PK-PD evaluation was performed using a linear model, the Emax model, and the Emax 100 model. […] Finally, the Emax model had the lowest weighted sum of squares and was therefore selected as the most appropriate PK-PD model to describe the data. […] The AUC50 is defined as the AUCτ,ss that is needed in individuals to achieve 50% of the maximum effect (decrease in seizure frequency)."}, "[3]": {"test_system": "subjects with partial-onset seizures", "assay": "PK-PD modeling of seizure frequency (Emax model, Example 54)", "assay_type": "in vivo, human", "from_the_text": "as §1, §2, §3, §4, §5"}, "[4]": {"settings": "cited from earlier work"}, "[5]": {"settings": "AUC of 67 μg/mL*h (mean dose 200 mg LCM bid)"}, "[6]": {"settings": "Emax model, daily dose 50 mg bid (subject with Vd 50 L, ke 0.06 h^-1)"}, "[7]": {"settings": "Emax model, daily dose 100 mg bid (subject with Vd 50 L, ke 0.06 h^-1)"}, "[8]": {"settings": "Emax model, daily dose 110 mg bid (subject with Vd 50 L, ke 0.06 h^-1), AUC50"}, "[9]": {"settings": "Emax model, daily dose 150 mg bid (subject with Vd 50 L, ke 0.06 h^-1)"}, "[10]": {"settings": "Emax model, daily dose 200 mg bid (subject with Vd 50 L, ke 0.06 h^-1)"}, "[11]": {"settings": "Emax model, daily dose 250 mg bid (subject with Vd 50 L, ke 0.06 h^-1)"}, "[12]": {"settings": "Emax model, daily dose 300 mg bid (subject with Vd 50 L, ke 0.06 h^-1)"}}, "note": "Several values for one entry are separate records, joined by “and”; a condition that tells them apart may be missing. Equal values may be shown once. Read-outs that look alike come from different tables or passages of the source."}
{"compound": "COC[C@@H](NC(C)=O)C(=O)NCc1ccccc1", "note": "[Lacosamide, (R)-2-Acetamido-N-benzyl-3-methoxypropionamide]", "values": [{"measurement": "Tmax", "setting": "[1]", "result": 1, "unit": "h"}, {"measurement": "AUC", "setting": "[2]; 50 mg", "result": 16700, "unit": "ng·h/mL"}, {"measurement": "AUC", "setting": "[2]; 100 mg", "result": 33300, "unit": "ng·h/mL"}, {"measurement": "AUC", "setting": "[2]; 110 mg", "result": 35900, "unit": "ng·h/mL"}, {"measurement": "AUC", "setting": "[2]; 150 mg", "result": 50000, "unit": "ng·h/mL"}, {"measurement": "AUC", "setting": "[2]; 200 mg", "result": 66700, "unit": "ng·h/mL"}, {"measurement": "AUC", "setting": "[2]; 250 mg", "result": 83300, "unit": "ng·h/mL"}, {"measurement": "AUC", "setting": "[2]; 300 mg", "result": 100000, "unit": "ng·h/mL"}, {"measurement": "decrease as percent of the maximum effect", "setting": "[3]; [5]", "result": 65, "unit": "%"}, {"measurement": "decrease of the daily number of seizures", "setting": "[3]; [5]", "result": 46, "unit": "%"}, {"measurement": "AUC50 (AUC needed to achieve half of the maximum effect), arithmetic mean (SD)", "setting": "[3]; Emax model, N = 615 subjects", "result": "35.9 (185.6) μg/mL*h"}, {"measurement": "AUC50, 1st quantile", "setting": "[3]; Emax model, N = 615 subjects", "result": 0, "unit": "µg·h/mL"}, {"measurement": "AUC50, 3rd quantile", "setting": "[3]; Emax model, N = 615 subjects", "result": 27.27, "unit": "µg·h/mL"}, {"measurement": "AUC50, median", "setting": "[3]; Emax model, N = 615 subjects", "result": 1.05, "unit": "µg·h/mL"}, {"measurement": "AUC50, range", "setting": "[3]; Emax model, N = 615 subjects", "result": "0 to 3998", "unit": "µg·h/mL"}, {"measurement": "Emax, 3rd quantile", "setting": "[3]; Emax model, N = 615 subjects", "result": 100, "unit": "%"}, {"measurement": "Emax, arithmetic mean (SD)", "setting": "[3]; Emax model, N = 615 subjects", "result": "71.0 (30.0) %"}, {"measurement": "Emax, median", "setting": "[3]; Emax model, N = 615 subjects", "result": 77.0, "unit": "%"}, {"measurement": "Emax, range", "setting": "[3]; Emax model, N = 615 subjects", "result": "0.06-100%"}, {"measurement": "Emax, maximum effect (reduction of the seizure frequency vs baseline)", "setting": "[3]; Emax model, pooled clinical trials, adjunctive LCM", "result": 71, "unit": "%"}, {"measurement": "AUC50 (AUC at steady-state to achieve half of the maximum decrease in partial seizure frequency), mean", "setting": "[3]; Emax model, pooled clinical trials, listed as LCM", "result": "35 µg·h/mL and 35.9 µg·h/mL"}, {"measurement": "Decrease of daily number of seizures, E(AUC) % of Emax", "setting": "[3]; [6]", "result": "31.7 % of Emax"}, {"measurement": "Decrease of daily number of seizures, E(AUC) % of base line", "setting": "[3]; [6]", "result": "22.5 % of base line"}, {"measurement": "Decrease of daily number of seizures, E(AUC) % of Emax", "setting": "[3]; [7]", "result": "48.1 % of Emax"}, {"measurement": "Decrease of daily number of seizures, E(AUC) % of base line", "setting": "[3]; [7]", "result": "34.2 % of base line"}, {"measurement": "Decrease of daily number of seizures, E(AUC) % of Emax", "setting": "[3]; [8]", "result": "50 % of Emax"}, {"measurement": "Decrease of daily number of seizures, E(AUC) % of base line", "setting": "[3]; [8]", "result": "35.1 % of base line"}, {"measurement": "Decrease of daily number of seizures, E(AUC) % of Emax", "setting": "[3]; [9]", "result": "58.2 % of Emax"}, {"measurement": "Decrease of daily number of seizures, E(AUC) % of base line", "setting": "[3]; [9]", "result": "41.3 % of base line"}, {"measurement": "Decrease of daily number of seizures, E(AUC) % of Emax", "setting": "[3]; [10]", "result": "65.0 % of Emax"}, {"measurement": "Decrease of daily number of seizures, E(AUC) % of base line", "setting": "[3]; [10]", "result": "46.1 % of base line"}, {"measurement": "Decrease of daily number of seizures, E(AUC) % of Emax", "setting": "[3]; [11]", "result": "69.9 % of Emax"}, {"measurement": "Decrease of daily number of seizures, E(AUC) % of base line", "setting": "[3]; [11]", "result": "49.6 % of base line"}, {"measurement": "Decrease of daily number of seizures, E(AUC) % of Emax", "setting": "[3]; [12]", "result": "73.6 % of Emax"}, {"measurement": "Decrease of daily number of seizures, E(AUC) % of base line", "setting": "[3]; [12]", "result": "52.2 % of base line"}, {"measurement": "decrease as percent of the maximum effect", "setting": "[3]; in vivo", "result": 74, "unit": "%"}, {"measurement": "decrease of the daily number of (partial) seizures", "setting": "[3]; in vivo", "result": 52, "unit": "%"}, {"measurement": "maximum dosage-normalized steady state plasma level (Cmax, ss, norm)", "setting": "[4]; IR tablets twice daily, average distribution volume 50 litres", "result": "40 to 43", "unit": "ng/mL/mg"}, {"measurement": "Tmax", "setting": "[4]; IR tablets, after administration", "result": "1.4 to 1.5", "unit": "h"}, {"measurement": "elimination half-life", "setting": "[4]; in vivo", "result": "13 to 14", "unit": "h"}, {"measurement": "bioavailability", "setting": "[4]; oral", "result": "~100", "unit": "%"}]}
